The source of these data is patent US4269831A, “Topical dermatological method of use of an androstenopyrazole” (priority 1979, dated 1981).

Data set [1] concerns hair growth on backs of male adrenalectomized Sprague-Dawley rats. The experiment in a line: Reduction in hair growth in male adrenalectomized rats, topical (Table VII). The following applies: 0.1% solution topical. Type of data set: in vivo. The source says:
Hair was clipped from the backs of male Sprague-Dawley rats, having a mean body weight of 300 g., three weeks after adrenalectomy. The clipped area (4 cm.×4 cm.) was medicated with approximately 500 microliters of 0.1% solution of the compound of Formula I, or hydrocortisone or 500 microliters of ethanol alone for a two-week pretreatment period. The clipped area was then depilated and the medication with either solution or ethanol alone was continued for 4 weeks. The density of hair growth was scored visually at weekly intervals and at termination of the experiment on a scale of 0 to 4 (0, no hair growth; 4, complete hair regrowth). Skinfold thickness was also measured using a micrometer at the end of the experiment, which was conducted blind.

Data set [2] concerns supracaudal glands of mature male guinea pigs. The data set is described as follows: Topical study on supracaudal glands of guinea pigs. Type of data set: in vivo. To be noted: 21 days. The procedure: The supracaudal glands of mature male guinea pigs having a mean initial body weight of 431 g. (8 guinea pigs per group) were medicated topically with a solution of the compound of Formula I (400 micrograms) in ethanol (10 microliters). Guinea pigs treated with ethanol served as controls. After 21 days of treatment the guinea pigs were killed and the areas of the supracaudal glands (pi×long radius×short radius) were measured in situ with calipers. The weights of seminal vesicles, adrenals and thymus glands were also measured.

The test system of data set [3] is adrenalectomized Sprague-Dawley rats. The experiment in a line: Systemic glucocorticoid activity in the adrenalectomized rat, oral. Type of data set: in vivo. Set-up: Liver glycogen: unit not given here. To be noted: five consecutive days; for Liver glycogen: control 1.82±0.03; for Thymus weights: control 638±50. How it is done:
A solution of the compound of Formula I in ethanolcottonseed oil (1:9, v/v) was administered orally to adrenalectomized Sprague-Dawley rats having a mean initial body weight of 188 g. (10 rats per group) for five consecutive days. Adrenalectomized rats receiving vehicle alone served as controls. Seven hours after the final medication the rats were killed and the thymus glands were excised and weighed. A portion of the liver was excised, frozen and digested in hot aqueous potassium hydroxide (30%). Liver glycogen was then determined. In this test the compound of Formula I caused thymolysis and liver glycogen deposition. The thymus weights at doses of 10 and 30 mg./kg. were 359±31 and 167±20 mg., respectively,in the medicated rats compared with 638±50 mg. in the control rats.

For data set [4], the system named is male hamster flank organ hair. The data set is described as follows: Rate of flank organ hair growth by 35S-cystine pulse labelling (Table V). Type of data set: in vivo, Syrian golden hamsters. To be noted: right flank organ, 5 microliters 0.1% solution daily for 14 days; mean ± SE, n=8. How it is done:
In a second test all hair was clipped from the flank organs of 8 male Syrian golden hamsters having a mean body weight of 116 g. on the first day of the study. The hamsters were medicated daily with 5 microliters of ethanol on the left flank organ and 5 microliters of a 0.1% solution of the compound of Formula I in ethanol on the right flank organ for 14 consecutive days. On days 4, 8 and 12 each hamster was injected subcutaneously with 30 microcuries of ^35 S-cystine (0.72 nmole) dissolved in ethanol-saline (0.1 ml., 1:9, v/v). On day 15 several hairs were plucked from each flank organ. The hairs were exposed to X-ray film for 4 weeks. The distances between the radioactive sites and the hair resulting from the three pulses of ^35 S-cystine were measured and the daily rate of hair-growth was determined. As shown by Table V the rate of hair growth was reduced after 12 days of treatment.

In data set [5] the target is T1, hamster flank organ cytosol receptor (Mesocricetus auratus, UniProt A0A1U7QL32).
T1 construct: The homogenate was centrifuged (120,000×g for 45 min.) and the cytosol was frozen and stored at -70° C; from tissue; host or cells: flank organ cytosol of castrated male Syrian golden hamsters
T1 sequence (A0A1U7QL32 1-900): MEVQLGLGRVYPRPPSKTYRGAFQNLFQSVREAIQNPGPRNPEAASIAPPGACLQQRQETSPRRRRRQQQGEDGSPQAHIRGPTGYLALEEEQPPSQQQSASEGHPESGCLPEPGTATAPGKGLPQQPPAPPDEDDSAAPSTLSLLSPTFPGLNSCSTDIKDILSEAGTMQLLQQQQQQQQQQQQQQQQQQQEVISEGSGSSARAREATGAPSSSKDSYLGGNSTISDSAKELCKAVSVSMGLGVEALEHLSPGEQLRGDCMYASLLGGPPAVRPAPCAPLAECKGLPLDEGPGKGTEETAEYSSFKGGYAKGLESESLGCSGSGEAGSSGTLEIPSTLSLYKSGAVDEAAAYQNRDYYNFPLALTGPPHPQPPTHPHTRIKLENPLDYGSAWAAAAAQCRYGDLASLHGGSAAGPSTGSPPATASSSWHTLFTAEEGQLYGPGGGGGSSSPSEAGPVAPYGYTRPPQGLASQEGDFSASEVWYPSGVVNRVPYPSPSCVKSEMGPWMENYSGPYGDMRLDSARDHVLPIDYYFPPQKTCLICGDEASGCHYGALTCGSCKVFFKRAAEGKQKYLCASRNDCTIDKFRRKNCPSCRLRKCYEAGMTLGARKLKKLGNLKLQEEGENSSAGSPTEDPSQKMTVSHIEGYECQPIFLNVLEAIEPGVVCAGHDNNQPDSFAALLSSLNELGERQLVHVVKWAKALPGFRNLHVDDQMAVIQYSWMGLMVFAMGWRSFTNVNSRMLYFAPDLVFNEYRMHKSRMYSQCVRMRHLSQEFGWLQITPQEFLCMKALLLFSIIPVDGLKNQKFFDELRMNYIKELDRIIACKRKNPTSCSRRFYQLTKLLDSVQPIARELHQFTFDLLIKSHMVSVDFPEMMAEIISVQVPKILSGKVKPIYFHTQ
The experiment in a line: Binding competition with 3H-dihydrotestosterone in hamster flank organ cytosol in vitro (Table VI). Set-up: species or system Syrian golden hamsters. To be noted: 3H-DHT 2 nM, two hours, no antagonist 13.96. How it is done: The flank organs of twelve mature male Syrian golden hamsters each weighing from 120 to 140 g. and having been castrated 16-18 hours earlier were excised, dissected under the microscope to remove the dermis and the muscle layers and homogenized in buffer (1.5 volumes of 50 mM Tris, 0.5 mM mercaptoethanol and 0.1 mM ethylenediamine tetracetate, pH 7.4). The homogenate was centrifuged (120,000×g for 45 min.) and the cytosol was frozen and stored at -70° C. Six of the cytosol samples were thawed at room temperature, pooled and used for evaluation of in vitro binding.

Setting [6] is: after depilation, median score, scale 0 to 4, n=12.

SMILES strings stand for the structures.

As to `CC#C[C@]1(O)CC[C@H]2[C@@H]3C[C@H](C)C4=Cc5[nH]ncc5C[C@]4(C)[C@H]3CC[C@@]21C` [Compound of Formula I, 17β-Hydroxy-6α-methyl-17α-propynyl-4-androsteno[3,2-c]-pyrazole], in data set [1] (setting [6]), the “Hair Growth Score, Treatment week 1” value is 0; the “Hair Growth Score, Treatment week 2” value turned out to be 0; the “Hair Growth Score, Treatment week 3” value is on record as “.5”; the “Hair Growth Score, Treatment week 4” value amounted to 1. In addition, the “Skinfold Thickness, Treatment week 4” value in data set [1] (mean, n=12, vehicle 2.51) stood at 1.82 mm. For the same compound, the “Hair Growth Score, Pretreatment week 1” value in data set [1] (median score, scale 0 to 4 (0 no hair growth, 4 complete regrowth), n=12) is on record as 1. Moreover, the “Hair Growth Score, Pretreatment week 2” value in data set [1] (median score, scale 0 to 4, n=12) is recorded as 2.5. For the same compound, the “Skin thickness compared with hydrocortisone-treated rats” value in data set [1] (p<0.02) was “thinner”. Besides, in data set [2] (400 micrograms in 10 microliters ethanol topical, control 104±7, p<0.01), the “Average area of the supracaudal glands” value is given as 72±6 sq. mm. In addition, the “Changes in weights of seminal vesicles, adrenals or thymus glands” value in data set [2] (400 micrograms topical, versus control group) is listed as “No changes”. In data set [3] (10 mg./kg. oral), the Liver glycogen is listed as 5.7±1.1 and the Thymus weights came to 359 ± 31 mg. For the same compound, in data set [3] (30 mg./kg. oral), the Liver glycogen amounted to 10.9±1.2 and the Thymus weights is 167 ± 20 mg. For the same compound, in data set [4], the “Rate of Hair Growth, First Interval (Day 4-8)” value is reported as “.504 ± .014 mm/day” and the “Rate of Hair Growth, Second Interval (Day 9-12)” value is given as “.566 ± .014 mm/day”. Also, the “% Bound (Mean ± SE) of 3H-dihydrotestosterone” value (shortened to “% Bound (Mean ± SE)”) in data set [5] (unlabelled antagonist 20 nM, molar ratio 10) is 9.94 ± .45%. The “% Bound (Mean ± SE)” value in data set [5] (unlabelled antagonist 200 nM, molar ratio 100) is 8.55 ± .56%. In data set [5] (unlabelled antagonist 2000 nM, molar ratio 1000), the “% Bound (Mean ± SE)” value was 6.30 ± .003%.
